From a melting point compilation (Tetko et al.; mined from patent text by program, amines drawn as free bases though some values may be those of a salt)

| melting point [°C] | Compound |
| --- | --- |
| 116 to 117 | CC(C)C[C@H](NC(=O)OCC1c2ccccc2-c2ccccc21)C(=O)N[C@H]1CCOC1OCc1ccccc1 (some centres undefined) |
| 161 to 164 | CCNS(=O)(=O)Cc1ccc(N)cc1 |
| 122 to 123 | Cc1ccc(C(=O)c2ccc([N+](=O)[O-])cc2)cc1 |
| 190 to 191 | CSCC1Cn2cc(C(=O)NCc3ccc(Cl)cc3)c(=O)c3cc(CN4CCOCC4)cc(c32)O1 (centres undefined) |
| 180 to 182 | COc1nc(C)cnc1NS(=O)(=O)c1cccnc1-c1ccc(OCCO)cc1 |
| 110 to 112 | CS(=O)(=O)c1ccc(Br)cc1C(F)(F)F |
| 175 to 177 | CS(=O)(=O)c1ccc(-c2cnn(-c3ccc(F)cc3)c(=O)c2Cc2ccc(F)cc2)cc1 |
| 171 to 173 | CC(=O)Nc1c(C)ccc([N+](=O)[O-])c1C |
| 48 to 52 | CC1(C)CCCN(CC2(O)CCNCC2)C1 |
| 83 to 86 | CSc1onc(-c2ccccc2)c1-c1ccccc1 |
| 250 to 252 | NC(=O)c1c(Cl)c(-c2ccccc2)n2c1CN(S(=O)(=O)c1ccccc1)CC2 |
| 154 to 158 | Cc1c(OCCCCSCCn2c([N+](=O)[O-])cnc2C)ccnc1CNc1cnc2ccccc2c1 |
| 144 | COc1ccc(CCN(C)CCCC2(c3ccc(OC)c(OC)c3)S(=O)(=O)CCCS2(=O)=O)cc1OC |
| 150 | CC(C)(C)[S@](=O)N1CCC[C@@H]1c1ccc(O)cc1 |
| 91 to 93 | CS(=O)(=O)c1ccccc1S(=O)(=O)Nc1cccc2cc(C(=O)NCCSC(c3ccccc3)(c3ccccc3)c3ccccc3)[nH]c12 |
| 170 | Cc1nc2c(OCc3c(Cl)ccc(S(=O)(=O)N4CCC[C@H]4C(=O)NCCCNC(=O)c4ccc(C=NN)cc4)c3Cl)cccn2c1Br |
| 153 to 155 | CCOC(=O)Cc1cnc(NS(C)(=O)=O)s1 |
| 115 to 117 | O=c1c(CO)cc(-c2ccc3c(c2)CCO3)nn1CC1CC1 |
| 149 to 150 | N=C(NC(=O)OCc1ccccc1)NC(=O)OCc1ccccc1 |
| 101 to 102 | CC(C)c1nc(CCCl)n(C)c1Sc1cc(Cl)cc(Cl)c1 |
| 107 to 108 | CCc1nc2c(c(=O)n(C)c(=O)n2C)n1CCCOc1ccccc1 |
| 234 to 235 | CC1(C)C(=O)Nc2ccc(-c3cccc([N+](=O)[O-])c3)cc21 |
| 122 to 123 | Cc1ccccc1-n1c(C)nc2cscc2c1=O |
| 140 to 142 | O=C1CC(C(=O)O)N(C(=O)CCS)N1 (centres undefined) |
| 175 to 177 | O=S(=O)(c1cccc2ccccc12)c1n[nH]c2ccc(OCC3CCNCC3)cc12 |
| 234 to 236 | COc1cc2c(cc1OC)-c1c(C)nc(Nc3c(C)cccc3C)n1CC2 |
| 178 | OC1CC(c2ccc(-c3ccc(OCc4ccc(Br)cc4)cc3)cc2)Cc2ccccc21 (centres undefined) |

| melting point [°C] | Compound |
| --- | --- |
| 276 to 278 | O=c1[nH]c2cc(Cl)c(Cl)cc2[n+]([O-])c1-c1ccc(O)cc1 |
| 147 to 149 | CCCCCCCCc1ccc(-c2ncc(O)cn2)cc1 |
| 256 to 258 | COc1ccc(C(C#N)C(=O)C(=O)C(C#N)c2ccccc2)cc1 (centres undefined) |
| 162 to 164 | Fc1ccc(Nc2cc(Cl)nc(NN=Cc3ccc(OC(F)(F)F)cc3)n2)cc1C(F)(F)F |
| 142 to 143 | CC(C)C(c1ccc(O)cc1)N1CCOCC1 (centres undefined) |
| 105 to 106 | CN1C(=O)SCC1C(=O)NCCO[N+](=O)[O-] (centres undefined) |
| 136 to 137 | CC(=O)NCC1CCCc2cc(NS(=O)(=O)c3cccc(F)c3)ccc21 (centres undefined) |
| 150 to 154 | CC(=O)Nc1ccc2c(c1)OCCN2C(C)=O |
| 145 to 147 | COC(=O)c1cnc(CO)n1C |
| 180 to 182 | CCOC(=O)c1c(C)[nH]c(-c2ccncc2)c1C |
| 293 | CN1CCN(S(=O)(=O)c2cc(NC(=O)c3cnn4c(C(F)F)cc(-c5ccc(C(F)(F)F)cc5)nc34)c(Cl)s2)CC1 |
| 148 to 149 | C[C@@H]1OC(=O)[C@H]2[C@H]3O[C@H]([C@H]4CCCC[C@H]43)[C@@H]21 |
| 243 to 244 | CC1=NC(NC(=O)Nc2cccc(C)c2)C(=O)N(CC(=O)NC(C)(C)C)c2c(C)cccc21 (centres undefined) |
| 113 to 115 | CN(Cc1cc2c3c(c1)c(=O)c(C(=O)NCc1ccc(F)cc1)cn3CC(=O)N2C)C[C@@H](O)c1cccs1 |
| 104 | CCOC(=O)Oc1ccc(S(=O)(=O)N2c3c(C)cccc3-n3cccc3C2CC)cc1 (centres undefined) |
| 155 to 156 | CC(=O)N(O)Cc1ccccc1Nc1c(Cl)ccc(C)c1Cl |
| 189 to 190 | CCC(=O)Nc1cc(-n2cccn2)nc(-c2ccc(Cl)o2)n1 |
| 58 to 68 | O=C(NO)c1ccccn1 |
| 259 to 263 | Cn1cc(-c2ccc(Br)cc2)c(=O)c(-c2cccc(C(=O)O)c2)c1 |
| 160 to 162 | CCc1cc(C#N)sc1-c1ccc2c(c1)C(C)(C)OC(=O)N2 |
| 213 to 214 | OC1(c2ccc(Cl)cc2)CCN(Cc2c[nH]c3ccccc23)CC1 |
| 151 to 153 | N#Cc1ccc(Cc2nc[nH]n2)cc1 |
| 36 to 37 | CCCCCCCCCCCCCCCCSCC1(CS(=O)(=O)CCCI)CCCO1 (centres undefined) |
| 81 to 83 | CCC(O)(c1ccsc1)c1oc(C)nc1C (centres undefined) |
| 123 to 125 | Cn1cc(C2=C(c3c4n(c5ccccc35)CCC3(CCCC3NC(=O)OC(C)(C)C)C4)C(=O)OC2=O)c2ccccc21 (centres undefined) |
| 141 to 142 | CC(=O)SCC(Cc1ccccc1)C(=O)Nc1ccc(C(=O)O)c(O)c1 (centres undefined) |
| 200 to 202 | CCc1[nH]n(C2CCCC2)c2nc(SC)nc(=O)c1-2 |

Further lines, the molecule ahead of its results:

| Compound | melting point [°C] |
| --- | --- |
| Nc1cccc2c3c([nH]c12)C=C(NC(=O)c1ccc(F)cc1)C=CC3 | 121 to 122 |
| COc1ccc(N2C(=O)N(c3cccc(C(N)=O)c3)c3nc(Nc4ccccc4)ncc3C2C)c(F)c1 (centres undefined) | 282 to 286 |
| CN(C)c1ccc(C2(c3ccccc3)Oc3ccccc3-c3[nH]c4ccccc4c32)cc1 (centres undefined) | 229 |
| OC(c1ccccc1)c1ccc(-c2ccccc2)cc1 (centres undefined) | 72 to 73 |
| COC(=O)c1ccc(OC)c(C=O)c1O | 123 to 124 |
| Cc1cc(NC(N)=O)cc(C)c1NC(=O)CN1CCN(CCCC(c2ccc(F)cc2)c2ccc(F)cc2)C(C(N)=O)C1 (centres undefined) | 142 |
| CSc1ncnc2c(N3CCSCC3)nc(N3CCNCC3)nc12 | 177 to 179 |
| C=CCN1CCC=C(c2csc(N)n2)C1 | 129 to 132 |
| COc1ccc(CNc2cc(Cn3c(C(=O)c4cc(C)cc(C)c4)c(C(C)C)c(=O)[nH]c3=O)cc(Cl)n2)cc1 | 211 to 212 |
| CC(=O)Nc1ccc([N+](=O)[O-])cc1OCC(O)CN1C(=O)CCC1=O (centres undefined) | 157 |
| CC1CC(=O)NN=C1c1ccc(NC(=O)CCNCC(O)COc2ccc(CCOCC3CC3)cc2)cc1 (centres undefined) | 54 to 56 |
| Cc1ccc(S(=O)(=O)OCc2c([N+](=O)[O-])cccc2[N+](=O)[O-])cc1 | 98 to 99 |
| CC(=O)N[C@H]1C(n2cc(Cl)cnc2=O)O[C@H](CO)[C@@H](O)[C@@H]1O (some centres undefined) | 156 to 158 |
| CCOC(=O)C(=Cc1ccc(OC)cc1OC)C(=O)OCC | 40 to 41 |
| CNc1nc(N)c(SC)c(Cl)n1 | 205 |
| O=C(NC(=O)c1c(F)cccc1Cl)Nc1ccc(S(=O)C(F)(F)C(F)F)cc1F (centres undefined) | 213 to 216 |
| COC(CNc1nc(C)nc2cccc(C)c12)OC | 48 to 49 |
| COc1cccc(CC(CO)NCCC(c2ccccc2)c2ccccc2)c1 (centres undefined) | 89 to 91 |
| O=C(Nc1ccc(Cl)cc1)c1ccccc1Cl | 93.7 to 95.1 |
| O=C(O)COc1cc2c(c(Cl)c1Cl)C(=O)C(c1ccc(F)cc1)C2 (centres undefined) | 189 to 190 |
| Cn1cc(-c2ccccc2)c(=O)c(-c2cccc(C#N)c2)c1 | 164 to 166 |
| CO[C@@H]1C[C@H](C)N(c2ccc(C#N)c3ccccc23)C1 | 88 to 89 |
| c1ccc(-c2onc3ccc(Oc4ccc5noc(-c6ccccc6)c5c4)cc23)cc1 | 158 to 165 |

| Compound | melting point [°C] |
| --- | --- |
| COC(=O)C(F)(F)C1(C(F)(F)C(=O)OC)OCCO1 | 66.5 to 67.5 |
| C#Cc1cc(Nc2ncnc3cnc(NC(=O)/C=C/CN(C)C)cc23)ccc1F | 152 to 155 |
| CN1Cc2c(-c3nc(CNCc4ccccc4)no3)ncn2-c2ccccc2C1=O | 195 to 198 |
| COc1cc(F)nc(NC(=O)NS(=O)(=O)c2ccccc2OS(C)(=O)=O)n1 | 168 to 169 |
| CCON=C(C(C)=NOCc1ccccc1C(=NOC)C(=O)NC)c1ccc(Oc2ccc(Cl)cc2)cc1 | 126 to 129 |
| COc1ccc(C=CC(=O)O)cc1-c1cc2c(cc1OCCCCCCCC(N)=O)C(C)(C)CCC2(C)C | 132 to 134 |
| Fc1cccc(F)c1C1=NC(c2cc3sc(-c4ccc(OC(F)(F)F)cc4)cc3s2)CC1 (centres undefined) | 135 |
| [O-][N+]1=C(c2ccccc2Cl)c2ccccc2C=CC1 | 115 to 116 |
| COc1ccc(C(c2ccc(OC)c(OCc3ccccc3)c2)n2cncn2)cc1OCc1ccccc1 | 96 to 99 |
| O=C(Cc1ccccc1)Nc1ccc2c(c1)C(=O)c1cc(NC(=O)Cc3ccccc3)ccc1C2=O | 224 |
| O=C(NC(c1ccccc1)c1cc2ccncc2[nH]1)c1ccccc1 (centres undefined) | 206 to 208 |
| Nc1ccc2c(c1-c1ccccc1)CCC2 | 73 to 75 |
| CC(C)(C)c1cc(SCc2nc3cccnc3[nH]2)cc(C(C)(C)C)c1O | 241 to 242 |
| CCCCCS(=O)(=O)NC(=O)CCc1ccc(OCCOC)cc1Oc1ncc(Cl)cc1Cl | 92.2 to 93.6 |
| CCN1OCCC(=Cc2cc(C(C)(C)C)c(O)c(C(C)(C)C)c2)C1=O | 166 to 167 |
| Nc1ccc(S(=O)(=O)c2cnc(N)s2)cc1 | 218 to 219 |
| CCc1cc(C=CN2C(=O)c3ccccc3C2=O)c(=O)[nH]c1C | 296 to 298 |
| CC(C)(C)OC(=O)C(=O)C=[N+]=[N-] | 100 |
| CN(C)CCCCCCSc1ncccc1C(=O)c1cccs1 | 69 to 71 |
| Cn1c(C(F)(F)F)cc(=O)n(-c2cc(OC(=O)C3CCCCC3)c(Cl)cc2F)c1=O | 97 to 101 |
| COc1ccc(CCC(=O)C2CCC3C4CCc5cc(C(=O)O)ccc5C4CCC23C)cc1 (centres undefined) | 178 to 179 |
| COc1cc2ccc3c4cc5c(cc4cnc3c2cc1OC)OCO5 | 275 to 277 |
